Experiments:
HOTAIR expression = experiment: Cytokine/chemokine screen, HOTAIR levels; type: cell-based; conditions: A2780 p cells, 10 ng/mL
Description: FIG. 11A is a line graph showing changes in HOTAIR target gene expression in A2780 p cells treated with IGF, TGF-β, EGF, IL-1α, or TNF-α (10 ng/mL). Asterisks indicate P<0.05 (*) or P<0.01 (**).
As a positive association between HOTAIR and the master transcription factor NF-κB has been reported. […] In an exemplary method, a cytokine/chemokine screen was performed, followed by the measurement of HOTAIR levels. Of the cytokines examined, HOTAIR expression was increased (P<0.05) by TNF-α (>15-fold) and TGF-β (5-fold) compared to control (FIG. 11A). To further confirm HOTAIR induction of NF-κB, a luciferase reporter construct containing the E-selectin promoter was used (861 base pairs containing 3 canonical NF-κB-p65-binding sites as a positive control; FIG. 3B) (Ozes, O. N., et al., NF-κB activation by tumour necrosis factor requires the Akt serine-threonine kinase. Nature, 1999. 401(6748):82-85, incorporated herein by reference in its entirety) and a 1.4-fold increase (p<0.05) in luciferase activity was observed by ectopic overexpression of HOTAIR compared to vector control (FIG. 11B), which was decreased (P<0.05) by PNA3 (FIG. 11B). PNA3 treatment of breast and ovarian cancer cells decreased (P<0.05) IL-6 secretion into the media (FIG. 11C). […]

A2780_CR5 [1] = experiment: Survival assay after inhibiting HOTAIR and/or EZH2; type: cell-based; conditions: dsiRNA targeting HOTAIR combined with GSK126; platinum-resistant cells
Description: In one exemplary method, the effect of inhibiting both HOTAIR and EZH2 on cancer cell survival was investigated. A highly platinum-resistant ovarian cancer cell line (A2780_CR5) was treated with dsiRNA targeting HOTAIR and/or a pharmacological inhibitor of EZH2 (GSK126), followed by survival assays. As an additive (P<0.05) effect of inhibiting HOTAIR-EZH2 on drug sensitivity and survival was observed (versus inhibiting either factor alone; FIG. 2A), it was next of interest to target the HOTAIR-EZH2 interaction by targeting the 89-mer minimum interacting region of HOTAIR, which has been shown. mFold (Zuker, M., Mfold web server for nucleic acid folding and hybridization prediction. Nucleic acids research, 2003. 31(13):3406-3415, incorporated herein by reference in its entirety) was used to validate the predicted secondary structure of this site, observing a highly predicted, single-stranded region in all 19 predicted structures, which complemented previous such structures (FIG. 3A).

A2780_CR5 [2] = experiment: Cell invasion assay (matrigel); type: cell-based; conditions: FIGS. 5D-5E (A2780_CR5 and SKBR-3)
Description: In another exemplary method, ovarian cancer cells and breast cancer cells were treated with PNA3 or control PNA. Decreased (P<0.05) invasion of A2780_CR5 (2-fold, FIG. 5D), Kuramochi (0.6-fold, FIG. 9A) and SKBR-3 (2-fold, FIG. 5E) was observed, and the effect of PNA3 on cell invasion was essentially similar to knocking-down HOTAIR expression using siRNA (FIGS. 5D-5E). PNA3 or control PNA had no effect on A2780p and MDA-MB-231 cell invasion (FIGS. 9B-9C).
Cells were grown in 6 cm culture plates until 70% confluence and treated with either PNA3 or control PNA (1 μM final) for 24 hr. Next day, the plates were trypsinized, serially diluted and 50,000 cells were seeded inside a matrigel invasion chamber insert (Corning, Cat #354480) in serum-free media supplemented with 0.1% BSA. Media supplemented with 20% FBS was added to the bottom of the well and 48 hrs later, cells were fixed and dyed using Wright-Giemsa method (Hema 3 Stat pack, Cat #23-122-929) and invasion was counted under a light microscope at 20× magnification. Relative cell invasion was measured by dividing the control number of invaded cells by the PNA-treated samples.

A2780_CR5 [3] = experiment: Mouse xenograft: tumor volume and survival; type: in vivo; conditions: CDDP-treated mice
Description: All animal studies adhered to ethical regulations and protocols. To assess tumorigenicity of cells, cultured A2780_CR5 cells were washed with PBS trypsinized and counted with trypan blue, re-suspended in 1:1 PBS/matrigel (BD Bioscience) and 2×10^6 cells were injected subcutaneously into the left flank of 3- to 4-week-old female nude athymic mice (BALB/c-nu/nu; Harlan, Indianapolis, Ind.). Engrafted mice (n=6 per group) were inspected three times per week for tumor appearance by visual observation and palpation. Once tumors were ˜200 mm^3, mice were treated with either CDDP (2 mg kg−1) or PNA (1 mg kg−1) or both CDDP and PNA twice per week for two weeks. Blood samples were collected by puncturing the left lateral saphenous vein with a needle and collected using a capillary tube. Tumor length (l) and width (w) were measured biweekly using digital calipers and tumor volume (v) was calculated as v=½×1×w2. No randomization was used and no animals were excluded from the final data. […]

IL-6, MMP-9 and ALDH1A1 = experiment: Mouse xenograft: blood IL-6 (ELISA) and tumor expression of HOTAIR targets; type: in vivo, mice; conditions: CDDP alone; after the second bi-weekly treatment
[4] = Mouse xenograft: body weight, spleen and liver weight, histology; type: in vivo
Description: In another exemplary method, to investigate anti-tumor properties of pHLIP-PNA3 in vivo, BALB/C mice were subcutaneously injected with CDDP-resistant A2780_CR5 (2×10^6 cells). Once tumors reached ˜200 mm^3, mice were injected intravenously (two times per week for 2 weeks) with pHLIP-PNA3 (1 mg/kg), pHLIP-control PNA (1 mg/kg), and/or CDDP (2 mg/kg i.p.) at indicated times (FIG. 14A). Tumor volume was reduced (p=0.02) in mice co-administered pHLIP-PNA3+CDDP compared to pHLIP-control PNA+CDDP (FIG. 13A). Tumor volume in mice treated with either pHLIP-PNA alone was similar to vehicle-treated mice (FIG. 14A). Importantly, survival of mice treated with pHLIP-PNA3 vs. mock was increased 1.6-fold (39 vs. 25 days; FIG. 13B), and body weight was similar among groups (FIG. 14B), showing that PNAs are non-toxic in vivo. […]
All animal studies adhered to ethical regulations and protocols. To assess tumorigenicity of cells, cultured A2780_CR5 cells were washed with PBS trypsinized and counted with trypan blue, re-suspended in 1:1 PBS/matrigel (BD Bioscience) and 2×10^6 cells were injected subcutaneously into the left flank of 3- to 4-week-old female nude athymic mice (BALB/c-nu/nu; Harlan, Indianapolis, Ind.). […] Tumor length (l) and width (w) were measured biweekly using digital calipers and tumor volume (v) was calculated as v=½×1×w2. […]

## TNF-α
HOTAIR expression
  HOTAIR expression increase compared to control: > 15 fold

## dsiRNA targeting HOTAIR: dsiRNA targeting human HOTAIR, sense SEQ ID NO: 22, antisense SEQ ID NO: 23 (sense UUCUAAAUCCGUUCCAUUCCACUGCGA; antisense GCAGUGGAAUGGAACGGAUUUAGAA; antisense strand carries a 5'-phosphate, other chemistry not given here, further chemistry not given here)
A2780_CR5 [1]
  effect on drug sensitivity and survival of inhibiting both HOTAIR and EZH2 versus either alone: additive
A2780_CR5 [2]
  cell invasion, in words: decrease

## TGF-β
HOTAIR expression
  HOTAIR expression increase compared to control: 5 fold

## CC[C@H](C)n1cc(C)c2c(C(=O)NCc3c(C)cc(C)[nH]c3=O)cc(-c3ccc(N4CCNCC4)nc3)cc21 [GSK126]
A2780_CR5 [1]
  effect on drug sensitivity and survival of inhibiting both HOTAIR and EZH2 versus either alone: additive

## [NH2][Pt]([NH2])([Cl])[Cl] [CDDP, cisplatin]
A2780_CR5 [3]
  H&E slides of tumors: fewer cells
IL-6, MMP-9 and ALDH1A1
  blood IL-6 levels compared to controls: increased
[4]; CDDP treatment
  spleen size compared to mock treated: increased
[4]; similar trend as spleen
  liver size: none were statistically significant

From patent US10801024B2, “Inhibition of lncRNA HOTAIR and related materials and methods” (Indiana University Research and Technology Corporation, priority 2015, dated 2020)
